Measured values from US8420675B2, “Aminotetrahydroindazoloacetic acids” (Hoffmann-La Roche Inc., priority 2008, dated 2013).

molecular target: T1, human CRTH2 (Homo sapiens, UniProt Q9Y5Y4); assay: Human CRTH2 Receptor Binding Assay (whole cell, [3H]ramatroban competition); details: CHO-K1 cells expressing human CRTH2 and G-alpha16; 20 nM [3H]ramatroban; 1 hour, room temperature
T1 construct: expressed in transfected cells
T1 sequence (Q9Y5Y4 1-395): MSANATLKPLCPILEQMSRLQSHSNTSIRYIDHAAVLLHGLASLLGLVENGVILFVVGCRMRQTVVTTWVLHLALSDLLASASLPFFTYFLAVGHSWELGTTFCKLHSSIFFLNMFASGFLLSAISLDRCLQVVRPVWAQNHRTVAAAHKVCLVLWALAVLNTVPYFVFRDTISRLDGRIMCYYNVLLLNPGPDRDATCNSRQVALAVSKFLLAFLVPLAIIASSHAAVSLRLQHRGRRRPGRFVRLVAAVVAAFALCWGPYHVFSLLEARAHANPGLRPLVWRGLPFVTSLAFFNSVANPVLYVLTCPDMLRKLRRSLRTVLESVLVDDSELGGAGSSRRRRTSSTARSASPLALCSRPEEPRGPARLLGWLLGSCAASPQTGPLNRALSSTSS
Source text: A whole cell receptor binding assay using [^3H]ramatroban as the competing radioactive ligand was employed to evaluate the compound binding activity to human CRTH2. The radioactive ligand [^3H]ramatroban was synthesized according to Sugimoto et. al. (Eur. J. Pharmacol. 524, 30-37, 2005) to a specific activity of 42 Ci/mmol.
A cell line stably expressing human CRTH2 was established by transfecting CHO-K1 cells with two mammalian expression vectors that harbored human CRTH2 and G-alpha16 cDNAs, respectively, using FuGene® 6 transfection reagent (from Roche). Stable clones expressing CRTH2 were selected by staining each clone with BM16 (BD Pharmingen™ from BD Biosciences, a division of Becton, Dickinson and Company), which is a rat monoclonal antibody to human CRTH2. The cells were maintained as monolayer cultures in Ham's F-12 medium containing 10% fetal bovine serum, 100 units/mL penicillin, 100 μg/mL streptomycin, 2 mM glutamine, 0.5 mg/mL G418 (geneticin) for CRTH2, and 0.2 mg/mL hygromycin-B (for G-alpha 16). For whole cell receptor binding assay, the monolayer cells were rinsed once with PBS (phosphate buffered saline), dissociated using ethylenediaminetetraacetate (Versene™ EDTA Lonza Inc.), and suspended in PBS containing 10 mM MgCl2 and 0.06% BSA (bovine serum albumin) at 1.5×10^6 cells/mL.
The binding reactions (0.2 mL) were performed in 96-well plates at room temperature in PBS containing 1.5×10^5 cells, 10 mM MgCl2, 0.06% BSA, 20 nM [^3H]ramatroban, and test compound at various concentrations. After 1 hour of binding reactions, the cells were harvested on GF™/B filter microplates (microtiter plates with embedded glass fiber from PerkinElmer, Inc.) and washed 5 times with PBS using a Filtermate™ Harvester (a cell harvester that harvests and washes cells from microplates from PerkinElmer, Inc.). The radioactivities bound to the cells were determined using a microplate scintillation counter (TopCount® NXT, from PerkinElmer, Inc.) after adding 50 μL of Microscint™ 20 scintillation fluid (from PerkinElmer, Inc.) to each well of the filter plates. The radioactivity from non-specific binding was determined by replacing compound with 10 μM of 15(R)-15-methyl PGD2 (from Cayman Chemical Company) in the reaction mixtures. The radioactivity bound to the cells in the absence of compound (total binding) was determined by replacing compound with 0.25% of DMSO (dimethyl sulfoxide) in the reaction mixture. Specific binding data were obtained by subtracting the radioactivity of non-specific binding from each binding data.
The IC50 value is defined as the concentration of the tested compound that is required for 50% inhibition of total specific binding. In order to calculate the IC50 value, the percent inhibition data were determined for 7 concentrations for each compound. The percent inhibition for a compound at each concentration was calculated according to the following formula, [1-(specific binding in the presence of compound)/(total specific binding)]x100. The IC50 value was then obtained by fitting the percent inhibition data to a sigmoidal dose-response (4 parameter logistic) model in the XLfit® software Excel add-in program [from ID Business Solutions Ltd., model 205, where F(x)=(A+(B−A)/(1+((C/x)^D)))].

Structure (SMILES)	IC50 [nM]
O=C(O)Cn1ncc2c1CCC[C@H]2NS(=O)(=O)c1cc(F)c(Oc2ccc(F)cc2)cc1Cl [Example 5-6a, {(R)-4-[2-Chloro-5-fluoro-4-(4-fluoro-phenoxy)-benzenesulfonylamino]-4,5,6,7-tetrahydro-indazol-1-yl}-acetic acid]	52.9
O=C(O)CCn1ncc2c1CCC[C@H]2NS(=O)(=O)c1ccc(Oc2ccccc2Cl)c(Cl)c1 [Example 5-7a, 3-{(R)-4-[3-Chloro-4-(2-chloro-phenoxy)-benzenesulfonylamino]-4,5,6,7-tetrahydro-indazol-1-yl}-propionic acid]	53
CN([C@@H]1CCCc2c1cnn2CC(=O)O)S(=O)(=O)c1cnc(Oc2ccc(Cl)cc2)c(Br)c1 [Example 6-1a, ((R)-4-{[5-Bromo-6-(4-chloro-phenoxy)-pyridine-3-sulfonyl]-methyl-amino}-4,5,6,7-tetrahydro-indazol-1-yl)-acetic acid]	4
CN([C@@H]1CCCc2c1cnn2CC(=O)O)S(=O)(=O)c1cnc(Oc2ccccc2Cl)c(Br)c1 [Example 6-2a, ((R)-4-{[5-Bromo-6-(2-chloro-phenoxy)-pyridine-3-sulfonyl]-methyl-amino}-4,5,6,7-tetrahydro-indazol-1-yl)-acetic acid]	6.6
CN([C@@H]1CCCc2c1cnn2CC(=O)O)S(=O)(=O)c1cnc(Oc2cc(Cl)cc(Cl)c2)c(Br)c1 [Example 6-3a, ((R)-4-{[5-Bromo-6-(3,5-dichloro-phenoxy)-pyridine-3-sulfonyl]-methyl-amino}-4,5,6,7-tetrahydro-indazol-1-yl)-acetic acid]	26.5
CN([C@@H]1CCCc2c1cnn2CC(=O)O)S(=O)(=O)c1cnc(Oc2ccc(Cl)cc2Cl)c(Br)c1 [Example 6-4a, ((R)-4-{[5-Bromo-6-(2,4-dichloro-phenoxy)-pyridine-3-sulfonyl]-methyl-amino}-4,5,6,7-tetrahydro-indazol-1-yl)-acetic acid]	4.6
CN([C@@H]1CCCc2c1cnn2CC(=O)O)S(=O)(=O)c1cnc(Oc2cc(Cl)ccc2Cl)c(Br)c1 [Example 6-5a, ((R)-4-{[5-Bromo-6-(2,5-dichloro-phenoxy)-pyridine-3-sulfonyl]-methyl-amino}-4,5,6,7-tetrahydro-indazol-1-yl)-acetic acid]	4.9
CN([C@@H]1CCCc2c1cnn2CC(=O)O)S(=O)(=O)c1cnc(Oc2ccc(F)cc2Cl)c(Br)c1 [Example 6-6a, ((R)-4-{[5-Bromo-6-(2-chloro-4-fluoro-phenoxy)-pyridine-3-sulfonyl]-methyl-amino}-4,5,6,7-tetrahydro-indazol-1-yl)-acetic acid]	6.8
CN([C@@H]1CCCc2c1cnn2CC(=O)O)S(=O)(=O)c1cnc(Oc2ccc(F)cc2F)c(Br)c1 [Example 6-7a, ((R)-4-{[5-Bromo-6-(2,4-difluoro-phenoxy)-pyridine-3-sulfonyl]-methyl-amino}-4,5,6,7-tetrahydro-indazol-1-yl)-acetic acid]	6.2
CN([C@@H]1CCCc2c1cnn2CC(=O)O)S(=O)(=O)c1cnc(Oc2cccc(Cl)c2)c(Br)c1 [Example 6-8a, ((R)-4-{[5-Bromo-6-(3-chloro-phenoxy)-pyridine-3-sulfonyl]-methyl-amino}-4,5,6,7-tetrahydro-indazol-1-yl)-acetic acid]	11.9
CN([C@@H]1CCCc2c1cnn2CC(=O)O)S(=O)(=O)c1cnc(Oc2ccc(Cl)cc2F)c(Br)c1 [Example 6-9a, ((R)-4-{[5-Bromo-6-(4-chloro-2-fluoro-phenoxy)-pyridine-3-sulfonyl]-methyl-amino}-4,5,6,7-tetrahydro-indazol-1-yl)-acetic acid]	7.1
CN([C@@H]1CCCc2c1cnn2CC(=O)O)S(=O)(=O)c1cnc(Oc2ccc(Cl)c(F)c2)c(Br)c1 [Example 6-10a, ((R)-4-{[5-Bromo-6-(4-chloro-3-fluoro-phenoxy)-pyridine-3-sulfonyl]-methyl-amino}-4,5,6,7-tetrahydro-indazol-1-yl)-acetic acid]	18.7
CC(C)c1ccc(Oc2ncc(S(=O)(=O)N(C)[C@@H]3CCCc4c3cnn4CC(=O)O)cc2Br)cc1 [Example 6-11a, ((R)-4-{[5-Bromo-6-(4-isopropyl-phenoxy)-pyridine-3-sulfonyl]-methyl-amino}-4,5,6,7-tetrahydro-indazol-1-yl)-acetic acid]	8.8
CN([C@@H]1CCCc2c1cnn2CC(=O)O)S(=O)(=O)c1cnc(Oc2ccc(F)cc2)c(Br)c1 [Example 6-12a, ((R)-4-{[5-Bromo-6-(4-fluoro-phenoxy)-pyridine-3-sulfonyl]-methyl-amino}-4,5,6,7-tetrahydro-indazol-1-yl)-acetic acid]	8.4
COc1cc(F)ccc1Oc1ncc(S(=O)(=O)N(C)[C@@H]2CCCc3c2cnn3CC(=O)O)cc1Br [Example 6-13a, ((R)-4-{[5-Bromo-6-(4-fluoro-2-methoxy-phenoxy)-pyridine-3-sulfonyl]-methyl-amino}-4,5,6,7-tetrahydro-indazol-1-yl)-acetic acid]	6.5
CN([C@@H]1CCCc2c1cnn2CC(=O)O)S(=O)(=O)c1cnc(Oc2ccc(C#N)cc2)c(Br)c1 [Example 6-14a, ((R)-4-{[5-Bromo-6-(4-cyano-phenoxy)-pyridine-3-sulfonyl]-methyl-amino}-4,5,6,7-tetrahydro-indazol-1-yl)-acetic acid]	8.2
CC(C)c1cc(S(=O)(=O)N(C)[C@@H]2CCCc3c2cnn3CC(=O)O)cnc1Oc1ccc(Cl)cc1 [Example 7-1a, ((R)-4-{[6-(4-Chloro-phenoxy)-5-isopropyl-pyridine-3-sulfonyl]-methyl-amino}-4,5,6,7-tetrahydro-indazol-1-yl)-acetic acid]	12.1
CN([C@@H]1CCCc2c1cnn2CC(=O)O)S(=O)(=O)c1cnc(Oc2ccc(Cl)cc2)c(C2(C)CC2)c1 [Example 8-1a, ((R)-4-{[6-(4-Chloro-phenoxy)-5-(1-methyl-cyclopropyl)-pyridine-3-sulfonyl]-methyl-amino}-4,5,6,7-tetrahydro-indazol-1-yl)-acetic acid]	14.5
CN([C@@H]1CCCc2c1cnn2CC(=O)O)S(=O)(=O)c1ccc(Oc2ccccc2Cl)c(Cl)c1 [Example 9-1a, ((R)-4-{[3-Chloro-4-(2-chloro-phenoxy)-benzenesulfonyl]-methyl-amino}-4,5,6,7-tetrahydro-indazol-1-yl)-acetic acid]	5.5
CN([C@@H]1CCCc2c1cnn2CC(=O)O)S(=O)(=O)c1ccc(Oc2cccc(Cl)c2)c(Cl)c1 [Example 9-2a, ((R)-4-{[3-Chloro-4-(3-chloro-phenoxy)-benzenesulfonyl]-methyl-amino}-4,5,6,7-tetrahydro-indazol-1-yl)-acetic acid]	12.2
CN([C@@H]1CCCc2c1cnn2CC(=O)O)S(=O)(=O)c1ccc(Oc2ccc(Cl)cc2)c(Cl)c1 [Example 9-3a, ((R)-4-{[3-Chloro-4-(4-chloro-phenoxy)-benzenesulfonyl]-methyl-amino}-4,5,6,7-tetrahydro-indazol-1-yl)-acetic acid]	11.1
CN([C@@H]1CCCc2c1cnn2CC(=O)O)S(=O)(=O)c1ccc(Oc2ccc(Cl)cc2)cc1Cl [Example 9-4a, ((R)-4-{[2-Chloro-4-(4-chloro-phenoxy)-benzenesulfonyl]-methyl-amino}-4,5,6,7-tetrahydro-indazol-1-yl)-acetic acid]	37.1
